Reference: paper PMC5415745, “Drug-transporter mediated interactions between anthelminthic and antiretroviral drugs across the Caco-2 cell monolayers” (BMC Pharmacology & Toxicology, 2017)
“And” between values parts separate entries of the source, which are not always exact repeats. Equal entries are not always repeated.

How the values were obtained:
in vitro = conditions: human, Mean
Experimental: (§1) The monolayers used were of between passage 20 and 65 after 15 days of growth. Each experiment was performed in duplicate using two six well-transwell culture plates. The cells were trypsinized as described earlier, and after centrifugation the pellet re-suspended in fresh DMEM (+15%), and the cells counted using a cell counter. A volume of DMEM was added enough to give a cell count of 2 × 10^6 cells per ml, and cells were seeded on the transwell culture plates at a density of 2 × 10^4 cells/cm^2 (~ 100,000 cells per well, since insert membrane growth area = 4.67 cm^2). The plates were then incubated at 37°C and 10% CO2 in a humidified chamber and the media changed every 2-3 days, by aspirating using a suction pump and replacing with an equal volume of DMEM. Transport experiments were conducted 15 to 20 days after seeding. The TEER across the cell monolayers was monitored using a Millicell-ERS in order to assess cell monolayer integrity and the monolayers considered appropriate for the experiment when the TEER values were typically above 500 cm^2 [49, 70].
(§2) Prior to transport studies, each monolayer was washed and equilibrated with the transport medium (DMEM without FBS). The medium was removed from all AP and BL compartments of the transwells and replaced with 2 ml of the transport medium (DMEM alone), to both compartments and equilibrated for 1 h (37°C, 10% CO2 incubator), after which the TEER was re-assessed and labeled. The medium was then removed from both compartments and replaced with an equal volume of pre-warmed medium containing the compound of interest at the appropriate concentration. For the AP → BL transport, 2 ml of medium containing the desired drug was placed in the AP chamber and 2 ml of the medium alone in the BL chamber, whereas 2 ml of medium containing the drug was placed in the BL and 2 ml of medium on the AP chamber for the BL → AP transport [71]. The effect of the second drug was then assessed by adding the medium containing the original drug and the drug under study to the AP side for AP → BL transport with the medium containing the original drug alone in the BL chamber, and vice-versa for the BL → AP transport. Transport in each direction was done in triplicate. The transwell plates were then incubated (37°C, 10% CO2 incubator), and 100μl of the samples from the AP and BL compartments were taken at 60, 120, 180 and 240 min and quantified either by HPLC method described earlier [45], or by the use of a liquid scintillating counter depending on the drug under study. The HPLC method involved liquid - liquid extraction followed by ultra-high performance liquid chromatography using a Hypurity C18 column and ultraviolet detection set at a wavelength of 215 nm. The mobile phase consisted of ammonium formate, acetonitrile and methanol (57:38:5 v/v). Separation was facilitated via isocratic elution at a flow rate of 1.5 ml/min. For HPLC assays, the concentration used for each drug was 20μg/ml. The concentrations that offered the best detection were selected for radiolabeled assay. […] The integrity of the CCM during the experiment was monitored by measuring the TEER at the beginning (0 min) and the end of the experiment (240min).
(§3) The results were expressed as apparent permeability coefficient (Papp, unit: cms^-1), the amount of compound transported per second. Papp values were calculated for both AP to BL (PappAtoB), and BL to AP (PappBtoA) movement of the compound. Papp was calculated using the following equation [52, 72]: • Papp (cm/s) = (dQ/dt) x (1/(ACO) • dQ/dt = Steady-state flux (dpm s^-1 or μmol s^-1) • A = Surface area of the filter (cm^2) • CO = Initial concentration in the donor chamber (dpm litre ^-1 or μM)
(§4) The quotient of secretory permeability and absorptive permeability (PappBL-AP/PappAP-BL) constitutes the efflux ratio, while the reverse (PappAP-BL/PappBL-AP) is the uptake ratio [71].

Caco-2 cell monolayers = assay: Bidirectional (AP→BL, BL→AP) drug transport across Caco-2 cell monolayers in transwells: cumulative transport, Papp, efflux ratio; HPLC or radiolabeled assay; conditions: for Basal to apical transport (cumulative, receiver): individual samples 1-3; for PappAB / PappBA: individual samples; for Apical to basal transport / Basal to apical transport: samples 1-3
Experimental: as §1, §2, §3, §4

P-gp = conditions: CEM parental and CEMVBL cells; cited from earlier work
[1] = PZQ alone (EFV experiment), 60 min
[2] = PZQ alone (EFV experiment), 120 min, mean
[3] = PZQ alone (EFV experiment), 120 min
[4] = PZQ alone (EFV experiment), 180 min, mean
[5] = PZQ alone (EFV experiment), 180 min
[6] = PZQ alone (EFV experiment), 240 min, mean
[7] = PZQ alone (EFV experiment), 240 min
[8] = PZQ alone (NVP experiment), 60 min, mean
[9] = PZQ alone (NVP experiment), 60 min
[10] = PZQ alone (NVP experiment), 120 min, mean
[11] = PZQ alone (NVP experiment), 120 min
[12] = PZQ alone (NVP experiment), 180 min, mean
[13] = PZQ alone (NVP experiment), 180 min
[14] = PZQ alone (NVP experiment), 240 min, mean
[15] = PZQ alone (NVP experiment), 240 min
[16] = PZQ alone (SQV experiment), 60 min, mean
[17] = PZQ alone (SQV experiment), 60 min
[18] = PZQ alone (SQV experiment), 120 min, mean
[19] = PZQ alone (SQV experiment), 120 min
[20] = PZQ alone (SQV experiment), 180 min, mean
[21] = PZQ alone (SQV experiment), 180 min
[22] = PZQ alone (SQV experiment), 240 min, mean
[23] = PZQ alone (SQV experiment), 240 min
[24] = PZQ alone (SQV experiment), after 60min
[25] = PZQ alone (SQV experiment), after 60min, mean
[26] = labelled drug is the interacting drug

Papp A→B at 7200 sec (in vitro; Caco-2, PappAB): 63.8 ×10⁻⁶ cm/s | Papp A→B at 10800 sec (in vitro; Caco-2, PappAB): 57.7 ×10⁻⁶ cm/s | Papp A→B at 14400 sec (in vitro; Caco-2, PappAB): 53.9 ×10⁻⁶ cm/s | Papp B→A at 7200 sec (in vitro; Caco-2, PappBA): 57.2 ×10⁻⁶ cm/s | Papp B→A at 10800 sec (in vitro; Caco-2, PappBA): 47.9 ×10⁻⁶ cm/s | Papp B→A at 14400 sec (in vitro; Caco-2, PappBA): 49.6 ×10⁻⁶ cm/s | Apical to basal transport (cumulative, receiver), Mean (Caco-2 cell monolayers; 60 min, mean n=3): 15.06 pmol | Basal to apical transport (cumulative, receiver), Mean (Caco-2 cell monolayers; 60 min, mean n=3): 16.60 pmol | PappAB Mean (Caco-2 cell monolayers; 3600 sec, mean n=3): 76.4 ×10⁻⁶ cm/s | PappBA Mean (Caco-2 cell monolayers; 3600 sec, mean n=3): 85.8 ×10⁻⁶ cm/s | Apical to basal transport (cumulative, receiver), Mean (Caco-2 cell monolayers; 120 min, mean n=3): 22.74 pmol | Basal to apical transport (cumulative, receiver), Mean (Caco-2 cell monolayers; 120 min, mean n=3): 20.81 pmol | Basal to apical transport (cumulative, receiver) (Caco-2 cell monolayers; 180 min): 26.18 pmol and 23.22 pmol | Apical to basal transport (cumulative, receiver), Mean (Caco-2 cell monolayers; 180 min, mean n=3): 27.30 pmol | Basal to apical transport (cumulative, receiver), Mean (Caco-2 cell monolayers; 180 min, mean n=3): 23.94 pmol | Apical to basal transport (cumulative, receiver), Mean (Caco-2 cell monolayers; 240 min, mean n=3): 32.95 pmol | Basal to apical transport (cumulative, receiver), Mean (Caco-2 cell monolayers; 240 min, mean n=3): 29.18 pmol | Basal to apical transport Mean (Caco-2 cell monolayers; PZQ alone (EFV experiment), 60 min, mean): 26.40 pmol | Apical to basal transport Mean (Caco-2 cell monolayers; [2]): 37.71 pmol | Basal to apical transport Mean (Caco-2 cell monolayers; [2]): 46.61 pmol | Apical to basal transport Mean (Caco-2 cell monolayers; [4]): 54.47 pmol | Basal to apical transport Mean (Caco-2 cell monolayers; [4]): 58.63 pmol | Apical to basal transport Mean (Caco-2 cell monolayers; [6]): 71.45 pmol | Basal to apical transport Mean (Caco-2 cell monolayers; [6]): 67.31 pmol | Basal to apical transport (Caco-2 cell monolayers; [7]): 74.78 pmol and 75.20 pmol | Apical to basal transport Mean (Caco-2 cell monolayers; [8]): 23.43 pmol | Basal to apical transport Mean (Caco-2 cell monolayers; [8]): 25.07 pmol | Apical to basal transport Mean (Caco-2 cell monolayers; [10]): 39.93 pmol | Basal to apical transport Mean (Caco-2 cell monolayers; [10]): 49.95 pmol | Apical to basal transport Mean (Caco-2 cell monolayers; [12]): 50.15 pmol | Basal to apical transport Mean (Caco-2 cell monolayers; [12]): 54.69 pmol | Basal to apical transport (Caco-2 cell monolayers; [13]): 53.14 pmol and 59.00 pmol | Apical to basal transport Mean (Caco-2 cell monolayers; [14]): 69.10 pmol | Basal to apical transport Mean (Caco-2 cell monolayers; [14]): 73.24 pmol | Apical to basal transport Mean (Caco-2 cell monolayers; [16]): 15.06 pmol | Basal to apical transport Mean (Caco-2 cell monolayers; [16]): 16.60 pmol | Apical to basal transport Mean (Caco-2 cell monolayers; [18]): 22.74 pmol | Basal to apical transport Mean (Caco-2 cell monolayers; [18]): 20.81 pmol | Apical to basal transport Mean (Caco-2 cell monolayers; [20]): 27.30 pmol | Basal to apical transport Mean (Caco-2 cell monolayers; [20]): 23.94 pmol | Apical to basal transport (Caco-2 cell monolayers; [21]): 28.02 pmol | Basal to apical transport (Caco-2 cell monolayers; [21]): 26.18 pmol and 23.22 pmol | Apical to basal transport Mean (Caco-2 cell monolayers; [22]): 32.95 pmol | Basal to apical transport Mean (Caco-2 cell monolayers; [22]): 29.18 pmol | PappAB (Caco-2 cell monolayers; [24]): 8.99 ×10⁻⁶ cm/s and 6.25 ×10⁻⁶ cm/s and 7.68 ×10⁻⁶ cm/s | PappBA (Caco-2 cell monolayers; [24]): 8.46 ×10⁻⁶ cm/s and 7.75 ×10⁻⁶ cm/s and 9.54 ×10⁻⁶ cm/s | PappAB Mean (Caco-2 cell monolayers; [25]): 7.64 ×10⁻⁶ cm/s | PappBA Mean (Caco-2 cell monolayers; [25]): 8.58 ×10⁻⁶ cm/s | ER Mean (Caco-2 cell monolayers; PZQ alone, mean, MOESM4): 1.14 | PappAB Mean (x10^6) (Caco-2 cell monolayers; PZQ alone, mean, MOESM4): 7.64 x10^6 cm/s | Effect on the (efflux) transport of SQV (Caco-2 cell monolayers; [26]): did not alter
Structure (SMILES): O=C(C1CCCCC1)N1CC(=O)N2CCc3ccccc3C2C1 (centres unmarked) [PZQ, praziquantel]
Basal to apical transport (cumulative, receiver) (Caco-2 cell monolayers; 60 min): 16.40 pmol and 16.26 pmol and 17.14 pmol | PappAB (Caco-2 cell monolayers; 3600 sec): 89.9 ×10⁻⁶ cm/s and 62.5 ×10⁻⁶ cm/s and 76.8 ×10⁻⁶ cm/s | PappBA (Caco-2 cell monolayers; 3600 sec): 84.6 ×10⁻⁶ cm/s and 77.5 ×10⁻⁶ cm/s and 95.4 ×10⁻⁶ cm/s | Basal to apical transport (cumulative, receiver) (Caco-2 cell monolayers; 120 min): 20.68 pmol and 19.96 pmol and 21.78 pmol | PappAB (Caco-2 cell monolayers; 7200 sec): 65.5 ×10⁻⁶ cm/s and 65.7 ×10⁻⁶ cm/s and 60.2 ×10⁻⁶ cm/s | PappBA (Caco-2 cell monolayers; 7200 sec): 56.2 ×10⁻⁶ cm/s and 57.9 ×10⁻⁶ cm/s and 57.5 ×10⁻⁶ cm/s | PappAB (Caco-2 cell monolayers; 10800 sec): 58.3 ×10⁻⁶ cm/s and 51.6 ×10⁻⁶ cm/s and 63.2 ×10⁻⁶ cm/s | PappBA (Caco-2 cell monolayers; 10800 sec): 56.6 ×10⁻⁶ cm/s and 41.1 ×10⁻⁶ cm/s and 46 ×10⁻⁶ cm/s | Basal to apical transport (cumulative, receiver) (Caco-2 cell monolayers; 240 min): 26.24 pmol and 28.48 pmol and 32.82 pmol | PappAB (Caco-2 cell monolayers; 14400 sec): 54.4 ×10⁻⁶ cm/s and 52 ×10⁻⁶ cm/s and 55.5 ×10⁻⁶ cm/s | PappBA (Caco-2 cell monolayers; 14400 sec): 50.1 ×10⁻⁶ cm/s and 43.3 ×10⁻⁶ cm/s and 55.4 ×10⁻⁶ cm/s | Apical to basal transport (Caco-2 cell monolayers; [1]): 33.50 pmol and 22.28 pmol and 39.18 pmol | Basal to apical transport (Caco-2 cell monolayers; [1]): 25.94 pmol and 27.98 pmol and 25.28 pmol | Apical to basal transport (Caco-2 cell monolayers; [3]): 45.74 pmol and 32.50 pmol and 34.88 pmol | Basal to apical transport (Caco-2 cell monolayers; [3]): 49.34 pmol and 35.84 pmol and 54.66 pmol | Apical to basal transport (Caco-2 cell monolayers; [5]): 46.84 pmol and 53.00 pmol and 63.58 pmol | Basal to apical transport (Caco-2 cell monolayers; [5]): 53.14 pmol and 51.00 pmol and 71.74 pmol | Apical to basal transport (Caco-2 cell monolayers; [7]): 50.62 pmol and 68.96 pmol and 94.76 pmol | Apical to basal transport (Caco-2 cell monolayers; [9]): 22.50 pmol and 22.28 pmol and 25.50 pmol | Basal to apical transport (Caco-2 cell monolayers; [9]): 23.94 pmol and 25.98 pmol and 25.28 pmol | Apical to basal transport (Caco-2 cell monolayers; [11]): 34.88 pmol and 39.18 pmol and 45.74 pmol | Basal to apical transport (Caco-2 cell monolayers; [11]): 49.34 pmol and 45.84 pmol and 54.66 pmol | Apical to basal transport (Caco-2 cell monolayers; [13]): 46.84 pmol and 53.00 pmol and 50.62 pmol | Apical to basal transport (Caco-2 cell monolayers; [15]): 63.58 pmol and 68.96 pmol and 74.76 pmol | Basal to apical transport (Caco-2 cell monolayers; [15]): 65.74 pmol and 78.78 pmol and 75.20 pmol | Apical to basal transport (Caco-2 cell monolayers; [17]): 16.68 pmol and 13.02 pmol and 15.48 pmol | Basal to apical transport (Caco-2 cell monolayers; [17]): 16.40 pmol and 16.26 pmol and 17.14 pmol | Apical to basal transport (Caco-2 cell monolayers; [19]): 22.40 pmol and 22.80 pmol and 23.02 pmol | Basal to apical transport (Caco-2 cell monolayers; [19]): 19.96 pmol and 21.78 pmol and 20.68 pmol | Apical to basal transport (Caco-2 cell monolayers; [23]): 30.94 pmol and 32.48 pmol and 35.44 pmol | Basal to apical transport (Caco-2 cell monolayers; [23]): 26.24 pmol and 28.48 pmol and 32.82 pmol | PappAB (Caco-2 cell monolayers; PZQ alone, MOESM4): 89.9 ×10⁻⁶ cm/s and 62.5 ×10⁻⁶ cm/s and 76.8 ×10⁻⁶ cm/s | PappBA (Caco-2 cell monolayers; PZQ alone, MOESM4): 84.6 ×10⁻⁶ cm/s and 77.5 ×10⁻⁶ cm/s and 95.4 ×10⁻⁶ cm/s | Effect on the transport of ARVs (Caco-2 cell monolayers; [26]): did not appear to significantly influence | P-gp substrate / inhibitor status (P-gp): neither a substrate nor an inhibitor of P-gp
